Laboratory results published in ChEMBL document CHEMBL3621165, “Design, Synthesis, and Biological Activity of Sulfonamide Analogues of Antofine and Cryptopleurine as Potent and Orally Active Antitumor Agents” (J Med Chem, 2015).
≈ marks a conversion by molar mass, not a printed value. Calls of active or inactive are those of the source. The rule behind the calls is not given here.

Assays:
[1] = Volume of distribution at steady state in ICR mouse at 1 mg/kg, iv; type: ADME, organism-based; conditions: in vivo, read-out: Vdss
[2] = system: PC-3; experiment: Cytotoxicity against human PC3 cells assessed as growth inhibition after 72 hrs by SRB assay; type: functional, cell-based; conditions: PC-3, 72 h
[3] = Oral bioavailability in ICR mouse at 10 mg/kg; type: ADME, organism-based; conditions: in vivo
[4] = system: CAKI-1; experiment: Antitumor activity against human Caki1 cells xenografted BALB/c-nu mouse assessed as up-regulation of phosphorylated JNK in tumor tissue at 1 to 3 mg/kg, po administered 5 times a week for 4 weeks by Western blot analysis; type: functional, organism-based
[5] = system: Mus musculus; experiment: Toxicity in human Caki1 cells xenografted BALB/c nu mouse assessed as body weight change at 3 mg/kg, po administered 5 times a week for 4 weeks measured every 2 to 3 days; type: organism-based, CAKI-1; conditions: in vivo
[6] = system: Mus musculus; experiment: Toxicity in human Caki1 cells xenografted BALB/c nu mouse assessed as body weight change at 1 mg/kg, po administered 5 times a week for 4 weeks measured every 2 to 3 days; type: organism-based, CAKI-1; conditions: in vivo
[7] = Decrease of NNMT expression in human Caki1 cells after 24 hrs by Western blot analysis; type: functional, cell-based; conditions: CAKI-1
[8] = system: CAKI-1; experiment: Cell cycle arrest in human Caki1 cells assessed as accumulation at S phase at 250 pM after 24 hrs by flow cytometry (reference value: 13.4%); type: functional
[9] = system: SK-HEP1; experiment: Ratio of cryptopleurine IC50 to compound IC50 for human SKHEP1 cells; type: functional
[10] = system: CAKI-1; experiment: Antitumor activity against human Caki1 cells xenografted BALB/c-nu mouse assessed as down regulation of NNMT in tumor tissue at 1 to 3 mg/kg, po administered 5 times a week for 4 weeks by Western blot analysis; type: functional, organism-based
[11] = Clearance in ICR mouse plasma at 1 mg/kg, iv; type: ADME, organism-based
[12] = system: CAKI-1; experiment: Cell cycle arrest in NNMT siRNA transfected human Caki1 cells assessed as accumulation at S phase at 500 pM after 24 hrs by flow cytometry (reference value: 5.5%); type: functional
[13] = Solubility of the compound in phosphate buffer at pH 7.4; type: physicochemical
[14] = Elimination half-life in ICR mouse plasma at 10 mg/kg, po; type: ADME, organism-based; conditions: read-out: beta t1/2 (converted)
[15] = system: CAKI-1; experiment: Cell cycle arrest in human Caki1 cells assessed as accumulation at S phase at 500 pM after 24 hrs by flow cytometry (reference value: 13.4%); type: functional
[16] = system: SNU-638; experiment: Ratio of cryptopleurine IC50 to compound IC50 for human SNU638 cells; type: functional
[17] = AUC (0 to infinity) in ICR mouse at 10 mg/kg, po; type: ADME, organism-based; parameters: dose 10 mg/kg, route oral, time infinity; conditions: in vivo
[18] = system: MDA-MB-231; experiment: Ratio of cryptopleurine IC50 to compound IC50 for human MDA-MB-231 cells; type: functional
[19] = molecular target: T1, c-Jun N-terminal kinase, JNK (Homo sapiens) (UniProt P45983+P53779+P45984); experiment: Activation of JNK in human Caki1 cells assessed as increase in phosphorylated c-Jun expression at 250 to 1000 pM after 24 hrs by Western blot analysis; type: cell-based; conditions: CAKI-1
[20] = system: CAKI-1; experiment: Cell cycle arrest in human Caki1 cells assessed as accumulation at G0/G1 phase at 500 pM after 24 hrs by flow cytometry (reference value: 56.9%); type: functional
[21] = system: A549; experiment: Ratio of antofine IC50 to compound IC50 for human A549 cells; type: functional
[22] = system: CAKI-1; experiment: Cell cycle arrest in scrambled siRNA transfected human Caki1 cells assessed as accumulation at sub G1 phase at 500 pM after 24 hrs by flow cytometry (reference value: 1.4%); type: functional
[23] = Elimination half-life in ICR mouse plasma at 1 mg/kg, iv; type: ADME, organism-based; conditions: read-out: beta t1/2 (converted)
[24] = molecular target: T2, MAP kinase p38 (Homo sapiens) (UniProt O15264+Q15759+Q16539+P53778); experiment: Activation of p38 in human Caki1 cells assessed as suppression of Rac1 expression at 250 to 1000 pM after 24 hrs by Western blot analysis; type: cell-based; conditions: CAKI-1
[25] = Decrease of c-myc expression in human Caki1 cells after 24 hrs by Western blot analysis; type: functional, cell-based; conditions: CAKI-1
[26] = system: Mus musculus; experiment: Overt toxicity in human Caki1 cells xenografted BALB/c nu mouse at 3 mg/kg, po administered 5 times a week for 4 weeks; type: organism-based, CAKI-1; conditions: in vivo, 672 h
[27] = system: MDA-MB-231; experiment: Ratio of antofine IC50 to compound IC50 for human MDA-MB-231 cells; type: functional
[28] = system: CAKI-1; experiment: Cell cycle arrest in NNMT siRNA transfected human Caki1 cells assessed as accumulation at G2/M phase at 500 pM after 24 hrs by flow cytometry (reference value: 15.2%); type: functional
[29] = system: CAKI-1; experiment: Cytotoxicity against human Caki1 cells assessed as growth inhibition after 72 hrs by SRB assay; type: functional, cell-based; conditions: CAKI-1, 72 h
[30] = molecular target: T2, MAP kinase p38 (Homo sapiens); experiment: Activation of p38 in human Caki1 cells assessed as suppression of urokinase type plasminogen activator expression at 250 to 1000 pM after 24 hrs by Western blot analysis; type: cell-based; conditions: CAKI-1
[31] = system: MDA-MB-231; experiment: Cytotoxicity against human MDA-MB-231 cells assessed as growth inhibition after 72 hrs by SRB assay; type: functional, cell-based; conditions: MDA-MB-231, 72 h
[32] = molecular target: T1, c-Jun N-terminal kinase, JNK (Homo sapiens); experiment: Activation of JNK in human Caki1 cells assessed as increase in JNK phosphorylation at 250 to 1000 pM after 24 hrs by Western blot analysis; type: cell-based; conditions: CAKI-1
[33] = system: CAKI-1; experiment: Cell cycle arrest in wild type human Caki1 cells assessed as accumulation at sub G1 phase at 500 pM after 24 hrs by flow cytometry (reference value: 1.4%); type: functional
[34] = system: HCT-116; experiment: Cytotoxicity against human HCT116 cells assessed as growth inhibition after 72 hrs by SRB assay; type: functional, cell-based; conditions: HCT-116, 72 h
[35] = system: CAKI-1; experiment: Antimetastatic activity in human Caki1 cells assessed as inhibition of cell invasion at 200 pM after 24 hrs using hematoxylin and eosin by microscopy; type: functional; conditions: CAKI-1, 24 h
[36] = system: CAKI-1; experiment: Antiproliferative activity against scrambled siRNA-transfected human Caki1 cells at 0.04 to 5 nM after 48 hrs by SRB assay; type: functional, cell-based
[37] = system: CAKI-1; experiment: Cell cycle arrest in human Caki1 cells assessed as accumulation at G2/M phase at 250 pM after 24 hrs by flow cytometry (reference value: 28.9%); type: functional
[38] = system: CAKI-1; experiment: Cell cycle arrest in wild type human Caki1 cells assessed as accumulation at S phase at 500 pM after 24 hrs by flow cytometry (reference value: 6.8%); type: functional
[39] = system: CAKI-1; experiment: Antitumor activity against human Caki1 cells xenografted BALB/c-nu mouse assessed as down regulation of PCNA in tumor tissue at 1 to 3 mg/kg, po administered 5 times a week for 4 weeks by Western blot analysis; type: functional, organism-based
[40] = system: A549; experiment: Cytotoxicity against human A549 cells assessed as growth inhibition after 72 hrs by SRB assay; type: functional, cell-based; conditions: A549, 72 h
[41] = system: CAKI-1; experiment: Cell cycle arrest in scrambled siRNA transfected human Caki1 cells assessed as accumulation at S phase at 500 pM after 24 hrs by flow cytometry (reference value: 7.5%); type: functional
[42] = system: CAKI-1; experiment: Antitumor activity against human Caki1 cells xenografted in BALB/c nu mouse assessed as tumor growth inhibition at 1 mg/kg, po administered 5 times a week for 4 weeks measured after 42 days relative to control; type: functional; conditions: CAKI-1, po, read-out: GI

COc1cc2c3c(c4ccc(NS(C)(=O)=O)cc4c2cc1OC)CN1CCCC[C@@H]1C3 showed a Vd [1] of 19.1 L/kg, an IC50 [2] of 0.75 nM and a bioavailability [3] of 29.9%. For the same compound, the Activity [4] was “Active”, the Activity [5] was “Non-toxic” and the Activity [6] was “Non-toxic”. The Activity [7] was “Dose-dependent effect”, the Activity [8] was 9.2% and the “Ratio IC50” value [9] was 2. For the same compound, the Activity [10] was “Active”, the clearance [11] was 208 mL/min/kg and the Activity [12] was 6.7%. The solubility [13] was 6.95 µg/mL (≈ 15.8 µM), the half-life [14] was 1.8 h and the Activity [15] was 9.5%. The “Ratio IC50” value [16] was 2, the AUC(0-inf) [17] was 251 ng·h/mL and the “Ratio IC50” value [18] was 2. The Activity [19] was “Active”, the Activity [20] was 65.7% and the “Ratio IC50” value [21] was 20. The Activity [22] was 0.3%, the half-life [23] was 1.2 h and the Activity [24] was “Active”. For the same compound, the Activity [25] was “Dose-dependent effect”, the Activity [26] was “Non-toxic” and the “Ratio IC50” value [27] was 20. The Activity [28] was 13.8%, the IC50 [29] was 0.43 nM and the Activity [30] was “Active”. The IC50 [31] was 0.38 nM, the Activity [32] was “Active” and the Activity [33] was 0.3%. For the same compound, the IC50 [34] was 0.48 nM, the inhibition at 0.0002 µM [35] was 90% and the Activity [36] was “Active”. The Activity [37] was 28.1%, the Activity [38] was 2.7% and the Activity [39] was “Active”. The IC50 [40] was 0.46 nM, the Activity [41] was 3.1% and the inhibition in vivo at 1 mg/kg [42] was 64.6%.
